“Also recorded” adds a separate entry of the source.
Tests used:
TNF-α [1] = assay: LPS-induced TNF-α production in RAW 264.7 cells (ELISA); format: cell-based, mouse; settings: for TNF-α level / TNF-α % Δ: 1 μM, LPS-challenged RAW 264.7 cells; for TNF-α % Δ: percentage of vehicle control value (control = 100%), mean ± S.E.M., n = 3; for LPS-induced TNF-α in cell culture media (in words): 100-1000 nM; for concentration from which TNF-α was significantly reduced: 100-1000 nM tested, vs LPS+Vehicle
Outline: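 Sandwich ELISA of TNF-α secreted into the media of RAW 264.7 cultures, with a biotinylated detection antibody, avidin-HRP and TMB substrate. Absorbance read at 450 nm with 570 nm background subtraction. Levels interpolated from a TNF-α protein standard curve.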

[2] = tested on: LPS-induced nitrite in RAW 264.7 cells; assay: LPS-induced nitrite production in RAW 264.7 cells (Griess reagent / fluorometric kit); format: cell-based, mouse; settings: for nitrite levels / nitrite level, % of vehicle control / nitrite inhibitory activity (comparison in words): 1 μM; for nitrite levels / nitrite level, % of vehicle control: LPS-challenged RAW 264.7 cells; for nitrite level, % of vehicle control: percentage of vehicle control value (control = 100%), mean ± S.E.M., n = 3; for nitrite inhibitory activity (comparison in words): tetrafluoro vs corresponding difluoro or stereoisomer; for LPS-induced nitrite in cell culture media (in words): 100-1000 nM; for concentration from which nitrite levels were significantly reduced: 100-1000 nM tested, vs LPS+Vehicle
Outline: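 Nitrite in culture media of LPS-challenged RAW 264.7 cells measured as a stable surrogate for NO, using Griess reagent (sulfanilamide, then N-1-naphthylethylenediamine, 10 min each in the dark). Absorbance at 550 nm, with levels read against a nitrite standard curve ([…]) made in matching medium.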

TNF-α [3] = assay: LPS model of inflammation in rats: TNF-α in plasma and brain; format: in vivo, rat; settings: for TNF-α plasma levels (in words): both doses (TFBP 16.25/32.5, TFNBP 14.33/28.66 mg/kg i.p.), 4 hr post LPS
Procedure: LPS model of inflammation in rats: Male Fischer 344 rats (Charles River Laboratories, Wilmington, MA, USA) (approx. 150 g weight) were randomly assigned across groups, and thereafter administered either vehicle (Veh), or TFBP or TFNBP. Two doses of TFBPs were evaluated: (TFBP: 16.25 mg/kg or 32.5 mg/kg, and for TFNBP: 14.33 mg/kg or 28.66 mg/kg), i.p. These compounds were suspended in 1% carboxymethyl cellulose (CMC) in saline (0.9%), and administered 60 min prior to either administration of LPS (1 mg/kg, Sigma, St Louis, MO, E. coli O55:B5 in saline (0.9%), 0.1 ml/kg i.p.) or of Vehicle (CMC in saline (0.9%) 0.1 ml/kg, i.p.). […] At 4 hr following LPS or Veh, animals were euthanized, and plasma and brain (hippocampus) tissue samples were collected and stored at −80° C. Brain samples were later sonicated in a Tris-based lysis buffer (Mesoscale Discovery, Gaithersburg, MD, USA) with protease/phosphatase inhibitors (Halt™ Protease and Phosphatase Inhibitor Cocktail, ThermoFisher Scientific, Asheville, NC, USA, diluted to 3×). Next, brain samples were centrifuged (10,000 g, 10 min, 4° C.), and protein concentrations were determined by Bicinchoninic acid assay (BCA, ThermoFisher Scientific, Asheville, NC, USA). An ELISA for TNF-α, IL-6, IL-1B, IL-10 and IL-13 was later performed following the manufacturer's protocol (Mesoscale Discovery).
Four hours after LPS injection, animals were euthanized, and blood and brain tissue were collected and placed on wet ice. Plasma was quickly separated from blood by centrifuge at 10,000 g. 5 min, 4° C., and brain regions of cortex, hippocampus and the rest of brain were dissected into separate vials on wet ice, then stored at −80° C. Brain tissues were then sonicated in a TRIS based lysis buffer (Mesoscale Discovery) with 3× protease/phosphatase inhibitors (Halt™ Protease and Phosphatase Inhibitor Cocktail, Thermo Fisher Scientific), were then centrifuged at 10,000 g, 10 min, 4° C., and protein concentrations were measured by Bicinchoninic acid assay (BCA, Thermo Fisher Scientific). Rat plasma, cerebral cortical and hippocampal samples were then analyzed by multi-proinflammatory cytokines ELISA (V-PLEX Proinflammatory Panel 2 Rat Kit, Mesoscale Discovery), following the manufacturer's protocol. The processes and dosages of the experiment of drug treatment effects on LPS rat model was made on the basis of our previous studies.

[4] = high dose (TFBP 32.5, TFNBP 28.66 mg/kg i.p.)
[5] = low dose (TFBP 16.25, TFNBP 14.33 mg/kg i.p.)

| Compound | TNF-α level (TNF-α [1]) | TNF-α % Δ (TNF-α [1]) | LPS-induced TNF-α in cell culture media (in words) (TNF-α [1]) | concentration from which TNF-α was significantly reduced (TNF-α [1]) | nitrite levels [2] | nitrite level, % of vehicle control [2] | nitrite inhibitory activity (comparison in words) [2] | LPS-induced nitrite in cell culture media (in words) [2] | concentration from which nitrite levels were significantly reduced [2] | TNF-α plasma levels (in words) (TNF-α [3]) | Cerebral cortex TNF-α, change vs. LPS group (TNF-α [3]; [4]) | TNF-α plasma levels, decline vs. LPS alone group (TNF-α [3]; higher dose (TFBP 32.5 mg/kg i.p.), 4 hr post LPS 1 mg/kg) | Cerebral cortex TNF-α, change vs. LPS group (TNF-α [3]; [5]) | LPS-induced elevation in TNF-α levels (in words) (TNF-α [1]; 0.6-60 μM, LPS 60 ng/mL, 24 h) | Nitrite, % Change versus Control (± s.e.m.) ([2]; 10 uM, LPS-activated RAW 264.7 cells) | drop in LPS-induced nitrite production ([2]; 10 μM, stimulated RAW cells) | LPS-induced elevation in nitrite levels (in words) ([2]; 0.6-60 μM, LPS 60 ng/mL, 24 h) | nitrite levels (in words) ([2]; six-compound pomalidomide grouping, RAW cell assay, FIGS. 12-13) | TNF-α in plasma and brain (TNF-α [3]; 29.57 mg/kg i.p., LPS rat model) |
| --- | --- | --- | --- | --- | --- | --- | --- | --- | --- | --- | --- | --- | --- | --- | --- | --- | --- | --- | --- |
| CC1(C)[C@@H]2CC[C@@]1(C)[C@@H](N1C(=O)c3c(F)c(F)c(F)c(F)c3C1=O)C2 [Compound 14, 4,5,6,7-Tetrafluoro-2-((1R,2S,4R)-1,7,7-trimethylbicyclo[2.2.1]heptan-2-yl) isoindoline-1,3-dione] | 55-74% | 55 ± 1% | significantly decreased | ≥ 600 nM | 25-36% | 26 ± 3% | more potent nitrite inhibitory activity | significantly decreased | ≥ 100 nM | reduced this increase | −58.3% | −76% | −41.7% |  |  |  |  |  |  |
| O=C1c2c(F)c(F)c(F)c(F)c2C(=O)N1C1CC2CCC1C2 (stereo not drawn) [Compound 16, 2-Endo-(bicyclo[2.2.1]heptan-2-yl)-4,5,6,7-tetrafluoroisoindoline-1,3-dione] | 55-74% | 74 ± 3% | significantly decreased; also recorded: effective in decreasing levels of nitrite and TNF-α | ≥ 300 nM | 25-36% | 36 ± 4% | more potent nitrite inhibitory activity | significantly decreased; also recorded: effective in decreasing levels of nitrite and TNF-α | ≥ 300 nM | reduced this increase | −41.7% |  | only effectively did so at the higher tested dose |  |  |  |  |  |  |
| Nc1ccc(F)c2c1C(=S)N(C1CCC(=S)NC1=O)C2=O (stereo not shown) [Compound 30, 4-amino-7-fluoro-2-(2-oxo-6-thioxopiperidin-3-yl)-3-thioxoisoindolin-1-one] |  |  |  |  |  |  |  |  |  |  |  |  |  | significantly lowered | 35.3 ± 3.0% | 65% | significantly lowered | superior | significantly reduce |
